Assay results reported in patent publication US4189484A, “Antihypertensive quinazoline derivatives” (priority 1977, dated 1980).

System: spontaneously hypertensive rats (SHR)
Experiment: Antihypertensive effect, oral administration to spontaneously hypertensive rats (mean blood pressure and heart rate)
Type: in vivo, rat
Settings: SHR, p.o.; for Changes in average blood pressures after administration: Table 3; for Change in blood pressure after 3 hrs. from administration: Table 1
Experimental: Antihypertensive effect was determined by oral administration of the test compound to spontaneously hypertensive rats (hereinafter referred to as SHR).
These SHR were anesthetized with ether and chronically embedded with a cannula for determination of blood pressure so that one end of the said cannula may be placed in abdominal aorta and the other end thereof may be projected out of dorsal neck. When rats regained their body weight before operation in more than 1 week from operation, the test compound was given. Determination was made by measuring a mean blood pressure and a heart rate under unanesthetized and unrestrained conditions with the cannula connected to an electronic recording system. The test compound was suspended in a 1% tragacanth gum solution to make up a concentration so as to be a volume of 5 ml./kg. and then orally given.

Molecule	Changes in average blood pressures after administration (3 mg./kg., 1 hr.) [mmHg]	Changes in average blood pressures after administration (3 mg./kg., 3 hrs.) [mmHg]	Changes in average blood pressures after administration (3 mg./kg., 6 hrs.) [mmHg]	Changes in average blood pressures after administration (3 mg./kg., 24 hrs.) [mmHg]	Change in blood pressure after 3 hrs. from administration (10 mg./kg., 3 hrs.) [mmHg]	further results
2-{4-[3-(5-Chlorothiophen-2-yl)-acryloyl]-piperazin-1-yl}-4-amino-6,7-dimethoxyquinazoline [compound 42]	-6	-6	-7	-2		
COc1cc2nc(N3CCN(C(=O)C=Cc4ccccc4C)CC3)nc(N)c2cc1OC [compound 2, 2-[4-(2-Methylcinnamoyl)-piperazin-1-yl]-4-amino-6,7-dimethoxyquinazoline]					-43	
COc1cc2nc(N3CCN(C(=O)C=Cc4cccc(C)c4)CC3)nc(N)c2cc1OC [compound 3, 2-[4-(3-Methylcinnamoyl)-piperazin-1-yl]-4-amino-6,7-dimethoxyquinazoline]					-35	
COc1cc2nc(N3CCN(C(=O)C=Cc4ccc(C)cc4)CC3)nc(N)c2cc1OC [compound 4, 2-[4-(4-Methylcinnamoyl)-piperazin-1-yl]-4-amino-6,7-dimethoxyquinazoline]					-18	
COc1cccc(C=CC(=O)N2CCN(c3nc(N)c4cc(OC)c(OC)cc4n3)CC2)c1 [compound 7, 2-[4-(3-Methoxycinnamoyl)-piperazin-1-yl]-4-amino-6,7-dimethoxyquinazoline]					-18	
COc1cc(C=CC(=O)N2CCN(c3nc(N)c4cc(OC)c(OC)cc4n3)CC2)cc(OC)c1 [compound 13, 2-[4-(3,5-Dimethoxycinnamoyl)-piperazin-1-yl]-4-amino-6,7-dimethoxyquinazoline]					-12	
COc1cc2nc(N3CCN(C(=O)C=Cc4ccc(OC)c(OC)c4OC)CC3)nc(N)c2cc1OC [compound 14, 2-[4-(2,3,4-Trimethoxycinnamoyl)-piperazin-1-yl]-4-amino-6,7-dimethoxyquinazoline]					-22	
C=CCOc1ccc(C=CC(=O)N2CCN(c3nc(N)c4cc(OC)c(OC)cc4n3)CC2)cc1 [compound 17, 2-[4-(4-Allyloxycinnamoyl)-piperazin-1-yl]-4-amino-6,7-dimethoxyquinazoline]					-18	
COc1cc2nc(N3CCN(C(=O)C=Cc4ccc(Br)cc4)CC3)nc(N)c2cc1OC [compound 21, 2-[4-(4-Bromocinnamoyl)-piperazin-1-yl]-4-amino-6,7-dimethoxyquinazoline]					-22	
COc1cc2nc(N3CCN(C(=O)C=Cc4cccc(C(F)(F)F)c4)CC3)nc(N)c2cc1OC [compound 22, 2-[4-(3-Trifluoromethylcinnamoyl)-piperazin-1-yl]-4-amino-6,7-dimethoxyquinazoline]					-10	
COc1cc2nc(N3CCN(C(=O)C=Cc4ccc(N(C)C)cc4)CC3)nc(N)c2cc1OC [compound 23, 2-[4-(4-Dimethylaminocinnamoyl)-piperazin-1-yl]-4-amino-6,7-dimethoxyquinazoline]					-15	
COc1cc2nc(N3CCN(C(=O)C=Cc4ccoc4)CC3)nc(N)c2cc1OC [compound 29, 2-{4-[3-(Furan-3-yl)-acryloyl]-piperazin-1-yl]-4-amino-6,7-dimethoxyquinazoline]						Changes in average blood pressures after administration (1 mg./kg., 1 hr.): -25 mmHg; Changes in average blood pressures after administration (1 mg./kg., 3 hrs.): -28 mmHg; Changes in average blood pressures after administration (1 mg./kg., 6 hrs.): -37 mmHg; Changes in average blood pressures after administration (1 mg./kg., 24 hrs.): -17 mmHg
COc1cc2nc(N3CCN(C(=O)C=Cc4ccc(C)o4)CC3)nc(N)c2cc1OC [compound 30, 2-{4-[3-(5-Methylfuran-2-yl)-acryloyl]-piperazin-1-yl}-4-amino-6,7-dimethoxyquinazoline]						Changes in average blood pressures after administration (1 mg./kg., 1 hr.): -13 mmHg; Changes in average blood pressures after administration (1 mg./kg., 3 hrs.): -12 mmHg; Changes in average blood pressures after administration (1 mg./kg., 6 hrs.): -15 mmHg; Changes in average blood pressures after administration (1 mg./kg., 24 hrs.): 0 mmHg
COc1cc2nc(N3CCN(C(=O)C(C)=Cc4ccco4)CC3)nc(N)c2cc1OC [compound 31, 2-{4-[2-Methyl-3-(furan-2-yl)-acryloyl]-piperazin-1-yl}-4-amino-6,7-dimethoxyquinazoline]						Changes in average blood pressures after administration (1 mg./kg., 1 hr.): -22 mmHg; Changes in average blood pressures after administration (1 mg./kg., 3 hrs.): -23 mmHg; Changes in average blood pressures after administration (1 mg./kg., 6 hrs.): -24 mmHg; Changes in average blood pressures after administration (1 mg./kg., 24 hrs.): -6 mmHg
COc1cc2nc(N3CCN(C(=O)C=Cc4ccc([N+](=O)[O-])o4)CC3)nc(N)c2cc1OC [compound 33, 2-{4-[3-(5-Nitrofuran-2-yl)-acryloyl]-piperazin-1-yl}-4-amino-6,7-dimethoxyquinazoline]	-15	-20	-11	3		
COc1cc2nc(N3CCN(C(=O)C=Cc4ccc(Cl)o4)CC3)nc(N)c2cc1OC [compound 34, 2-{4-[3-(5-chlorofuran-2-yl)-acryloyl]-piperazin-1-yl}-4-amino-6,7-dimethoxyquinazoline]	-20	-26	-28	0		
COc1cc2nc(N3CCN(C(=O)C=Cc4cccs4)CC3)nc(N)c2cc1OC [compound 35, 2-{4-[3-(Thiophen-2-yl)-acryloyl]-piperazin-1-yl}-4-amino-6,7-dimethoxyquinazoline]	-45	-27	-42	-2		Changes in average blood pressures after administration (1 mg./kg., 1 hr.): -27 mmHg; Changes in average blood pressures after administration (1 mg./kg., 3 hrs.): -25 mmHg; Changes in average blood pressures after administration (1 mg./kg., 6 hrs.): -25 mmHg; Changes in average blood pressures after administration (1 mg./kg., 24 hrs.): 0 mmHg
COc1cc2nc(N3CCN(C(=O)C=Cc4ccsc4)CC3)nc(N)c2cc1OC [compound 36, 2-{4-[3-(Thiophen-3-yl)-acryloyl]-piperazin-1-yl}-4-amino-6,7-dimethoxyquinazoline]	-47	-30	-35	0		Changes in average blood pressures after administration (1 mg./kg., 1 hr.): -18 mmHg; Changes in average blood pressures after administration (1 mg./kg., 3 hrs.): -20 mmHg; Changes in average blood pressures after administration (1 mg./kg., 6 hrs.): -27 mmHg; Changes in average blood pressures after administration (1 mg./kg., 24 hrs.): 3 mmHg
COc1cc2nc(N3CCN(C(=O)C=Cc4sccc4C)CC3)nc(N)c2cc1OC [compound 37, 2-{4-[3-(3-Methylthiophen-2-yl)-acryloyl]-piperazin-1-yl}-4-amino-6,7-dimethoxyquinazoline]	-18	-18	-18	5		
COc1cc2nc(N3CCN(C(=O)C=Cc4ccc(C)s4)CC3)nc(N)c2cc1OC [compound 38, 2-{4-[3-(5-Methylthiophen-2-yl)-acryloyl]-piperazin-1-yl}-4-amino-6,7-dimethoxyquinazoline]	-18	-27	-18	-2		
COc1cc2nc(N3CCN(C(=O)C(C)=Cc4cccs4)CC3)nc(N)c2cc1OC [compound 39, 2-{4-[2-Methyl-3-(thiophen-2-yl)-acryloyl]-piperazin-1-yl}-4-amino-6,7-dimethoxyquinazoline]	-65	-27	-35	-15		Changes in average blood pressures after administration (1 mg./kg., 1 hr.): -18 mmHg; Changes in average blood pressures after administration (1 mg./kg., 3 hrs.): -12 mmHg; Changes in average blood pressures after administration (1 mg./kg., 6 hrs.): -13 mmHg; Changes in average blood pressures after administration (1 mg./kg., 24 hrs.): 3 mmHg
COc1cc2nc(N3CCN(C(=O)C=Cc4ccccn4)CC3)nc(N)c2cc1OC [compound 43, 2-{4-[3-(Pyridin-2-yl)-acryloyl]-piperazin-1-yl}-4-amino-6,7-dimethoxyquinazoline]	-40	-22	-30	8		Changes in average blood pressures after administration (10 mg./kg., 1 hr.): -23 mmHg; Changes in average blood pressures after administration (10 mg./kg., 3 hrs.): -22 mmHg; Changes in average blood pressures after administration (10 mg./kg., 6 hrs.): -18 mmHg; Changes in average blood pressures after administration (10 mg./kg., 24 hrs.): -3 mmHg
COc1cc2nc(N3CCN(C(=O)C=Cc4cccnc4)CC3)nc(N)c2cc1OC [compound 44, 2-{4-[3-(Pyridin-3-yl)-acryloyl]-piperazin-1-yl}-4-amino-6,7-dimethoxyquinazoline]	-28	-15	-25	3		
